The values below come from US11814405B2, “Pyridine sulfonamide phosphate compound, preparation method therefor, and use thereof” (Shanghai Xunhe Pharmaceutical Technology Co. Ltd., priority 2019, dated 2023).

For data set [1] the following is noted: cited from earlier work.
In another data set the test system is Male SD rats. The data set is described as follows: Comparison of diuretic effects: urine output in saline-loaded rats. The data set is classed as in vivo, rat. As to conditions: 10 mg/kg, ig, after 30 mL/kg normal saline, urine collected for 4 h. How it is done: Male SD rats (body weight: 180±20 g) were randomly divided into 14 groups with 3 rats in each group. Each rat was administrated 30 mL/kg normal saline through intragastric administration. After intragastric administration of normal saline, except the blank control group, each group was administrated one drug (10 mg/kg, ig, 1 mg/mL, formulation prescription: normal saline dissolution). Urination for 4 h was collected.

Data set [2] is described as follows: Comparison of water solubility. As to conditions: for Phenomenon: at the API:water ratio given.
The conditions of data set [3]: active metabolite in vivo, compared with torsemide (Drugs 41 (1): 81-103, 1991); cited from earlier work.

“Also recorded” adds a separate entry of the source.

Take `Cc1cccc(Nc2ccncc2S(=O)(=O)NC(=O)NC(C)C)c1` [Torsemide, 1-[4-(3-methylphenyl)aminopyridin-3-yl]sulfonyl-3-isopropylurea]: the “solubility in 0.1 mol/L sodium hydroxide solution” value in data set [1] (0.1 mol/L sodium hydroxide solution) was “slightly soluble”. Also, the solubility in water entry in data set [1] is recorded as “almost insoluble in water; also recorded: very slightly soluble in water”. In the data set with Male SD rats, this molecule registered a Urine output of 105.3 mL/kg. For the same molecule, in data set [2], the Phenomenon result is recorded as “Completely dissolved” and the “Conclusion (water solubility)” value is reported as “Very slightly”.
On to `Cc1cc(Nc2ccncc2S(=O)(=O)NC(=O)NC(C)C)ccc1O` [Compound M3], for which the pharmacological activity entry in data set [3] is listed as “comparable to torsemide”. Besides, the solubility in water entry in data set [1] was “has not been effectively improved”. This molecule showed a Urine output in the data set on Male SD rats of 107.2 mL/kg. Besides, in data set [2], the Phenomenon entry is “Completely dissolved” and the “Conclusion (water solubility)” value is recorded as “Slightly soluble”.
